# US20230174649A1, “PHARMACEUTICAL COMPOSITIONS CONTAINING ANTI-CD47 ANTIBODIES” (I-MAB BIOPHARMA US LIMITED, priority 2020, published 2023)
# “And” between values parts separate entries of the source, which are not always exact repeats. Equal entries are not always repeated.
# Legend:
# Assay type in all cases: cell-based, Human
# macrophages = experiment: Macrophage Viability Assay (CellTiter-Glo); details: for Macrophage viability (CellTiter-Glo Luminescent Cell Viability Assay): 16 hours, three replicate lines
# Procedure: Then, the monocytes isolated by MACS were subsequently cultured in fresh complete medium supplemented with recombinant human granulocyte-macrophage colony-stimulating factor GM-CSF (50 ng/ml) and human recombinant IL-4 (35 ng/ml) to activate differentiated macrophages. After 6 days of culture (on day 7), cells were harvested, pooled together and counted for next use.
# The cells from Example 2 were plated into a 96-well flat bottom plate at a density of 0.05×10^6 cells/well. After 2 hours of incubation, the macrophages were well attached to the plate. Then selected small molecule therapeutic agents were added to the well and cocultured for 16 hours. On day 8, macrophage viability was assessed by CellTiter-Glo® Luminescent Cell Viability Assay, according to the manufacture's instruction.
# Toledo Cells = experiment: FACS-based phagocytosis assay, macrophages cocultured with Toledo cells
# Procedure: FACS-based phagocytosis assays were performed to evaluate the phagocytic abilities of macrophages.
# Toledo Cells (a tumor cell line, as a target) were labelled with CellTrace™ Far Red and plated into 96-well plate at a density of 0.15×10^6 cells/well for 12 hours. The Macrophages were prepared as discussed above and then labelled with CellTrace Violet. Next, the macrophages were added into the plate as an effector at an effector:target (Toledo) ratio of 1:3, giving a final density of macrophages at 0.05×10^6 cells/well. Macrophages and tumor cells were cocultured for 2-6 h at 37° C. in the presence of the indicated treatments (small molecule therapeutic agents, CD47 antibody, CD20 antibody or combinations). The incubation time depending on the phagocytosis rate, expecting phagocytosis of 5-20% cells.
# Then, cells were acquired and data were analyzed.
# Calreticulin = experiment: FACS analysis of expression level of calreticulin on tumor cell surface; details: Toledo cells; for Mean Fluorescence Intensity (MFI) Calreticulin: 12 hours
# Procedure: (§1) For FACS analysis, on the day of analysis (day 1), Toledo cells were seeded into 96 well plate and cultured at a density of 0.2×10^6 cells/well. Then the cells were treated with the selected small molecule therapeutic agents for 12 hours.
# (§2) On day 2, cells were harvested, washed twice and then re-suspended in 100 uL FACS buffer subject to FACS analysis. For detection of the expression of calreticulin and CD47, cells were incubated with anti-calreticulin antibody and commercially available anti-CD47 antibody (BD Biosciences, Catalog number: 561249) in dark at 4° C. for 30 mins.
# (§3) Then, the cells were subject to FACS analysis. Data was acquired and analyzed.
# CD47 = experiment: FACS analysis of expression level of CD47 on tumor cell surface; details: Toledo cells; for Mean Fluorescence Intensity (MFI) CD47: 12 hours
# Procedure: as §1, §2, §3
# [1] = Cpd 0.0016 uM, T4J = 0, R = 0.01 ug/ml
# [2] = Cpd 0.0016 uM, T4J = 0.1 ug/ml, R = 0
# [3] = Cpd 0.0016 uM, T4J = 0.1 ug/ml, R = 0.01 ug/ml
# [4] = Cpd 0.008 uM, T4J = 0, R = 0.01 ug/ml
# [5] = Cpd 0.008 uM, T4J = 0.1 ug/ml, R = 0
# [6] = Cpd 0.008 uM, T4J = 0.1 ug/ml, R = 0.01 ug/ml
# [7] = Cpd 0.04 uM, T4J = 0, R = 0.01 ug/ml
# [8] = Cpd 0.04 uM, T4J = 0.1 ug/ml, R = 0
# [9] = Cpd 0.04 uM, T4J = 0.1 ug/ml, R = 0.01 ug/ml
# [10] = Cpd 0.2 uM, T4J = 0, R = 0.01 ug/ml
# [11] = Cpd 0.2 uM, T4J = 0.1 ug/ml, R = 0
# [12] = Cpd 0.2 uM, T4J = 0.1 ug/ml, R = 0.01 ug/ml
# [13] = Cpd 1 uM, T4J = 0, R = 0.01 ug/ml
# [14] = Cpd 1 uM, T4J = 0.1 ug/ml, R = 0
# [15] = Cpd 1 uM, T4J = 0.1 ug/ml, R = 0.01 ug/ml
compound,measurement,setting,value
Nc1cccc2c1CN(C1CCC(=O)NC1=O)C2=O (centres unmarked) [Lenalidomide],Macrophage viability (CellTiter-Glo Luminescent Cell Viability Assay),macrophages; Cpd 0.002 uM,5972 and 5872 and 5776
same,Macrophage viability (CellTiter-Glo Luminescent Cell Viability Assay),macrophages; Cpd 0.008 uM,5992 and 5996 and 6180
same,Macrophage viability (CellTiter-Glo Luminescent Cell Viability Assay),macrophages; Cpd 0.04 uM,6152 and 6132 and 5892
same,Macrophage viability (CellTiter-Glo Luminescent Cell Viability Assay),macrophages; Cpd 0.2 uM,6216 and 6088 and 6456
same,Macrophage viability (CellTiter-Glo Luminescent Cell Viability Assay),macrophages; Cpd 1 uM,6016 and 6108 and 6088
same,Macrophage viability (CellTiter-Glo Luminescent Cell Viability Assay),macrophages; Cpd 5 uM,5840 and 6236 and 6108
same,Macrophage viability (CellTiter-Glo Luminescent Cell Viability Assay),macrophages; Cpd 25 uM,5432 and 5752 and 5744
same,Macrophage viability (CellTiter-Glo Luminescent Cell Viability Assay),macrophages; Cpd 50 uM,5208 and 5124 and 5644
same,toxicity to macrophages,macrophages; dose as high as 50 μM,showed toxicity
same,toxicity to macrophages,macrophages; dose lower than 10 μM,little toxic
same,macrophage phagocytosis (untreated = 1.00),"Toledo Cells; Cpd 0.0016 uM, T4J = 0, R = 0",1.02
same,macrophage phagocytosis (untreated = 1.00),Toledo Cells; [1],1.46
same,macrophage phagocytosis (untreated = 1.00),Toledo Cells; [2],2.48
same,macrophage phagocytosis (untreated = 1.00),Toledo Cells; [3],3.10
same,macrophage phagocytosis (untreated = 1.00),"Toledo Cells; Cpd 0.008 uM, T4J = 0, R = 0",1.03
same,macrophage phagocytosis (untreated = 1.00),Toledo Cells; [4],1.47
same,macrophage phagocytosis (untreated = 1.00),Toledo Cells; [5],2.57
same,macrophage phagocytosis (untreated = 1.00),Toledo Cells; [6],3.04
same,macrophage phagocytosis (untreated = 1.00),"Toledo Cells; Cpd 0.04 uM, T4J = 0, R = 0",1.08
same,macrophage phagocytosis (untreated = 1.00),Toledo Cells; [7],1.46
same,macrophage phagocytosis (untreated = 1.00),Toledo Cells; [8],2.56
same,macrophage phagocytosis (untreated = 1.00),Toledo Cells; [9],3.06
same,macrophage phagocytosis (untreated = 1.00),"Toledo Cells; Cpd 0.2 uM, T4J = 0, R = 0",0.96
same,macrophage phagocytosis (untreated = 1.00),Toledo Cells; [10],1.51
same,macrophage phagocytosis (untreated = 1.00),Toledo Cells; [11],2.61
same,macrophage phagocytosis (untreated = 1.00),Toledo Cells; [12],3.04
same,macrophage phagocytosis (untreated = 1.00),"Toledo Cells; Cpd 1 uM, T4J = 0, R = 0",1.01
same,macrophage phagocytosis (untreated = 1.00),Toledo Cells; [13],1.47
same,macrophage phagocytosis (untreated = 1.00),Toledo Cells; [14],2.62
same,macrophage phagocytosis (untreated = 1.00),Toledo Cells; [15],3.07
same,phagocytic ability of macrophages,"Toledo Cells; triple combination: T4J, Rituximab and the small molecule",does not show the synergistic effects
same,Mean Fluorescence Intensity (MFI) Calreticulin,Calreticulin; 0.008 uM,69.3
same,Mean Fluorescence Intensity (MFI) Calreticulin,Calreticulin; 0.04 uM,70.1
same,Mean Fluorescence Intensity (MFI) Calreticulin,Calreticulin; 0.2 uM,73.4
same,Mean Fluorescence Intensity (MFI) Calreticulin,Calreticulin; 1 uM,75.6
same,Mean Fluorescence Intensity (MFI) Calreticulin,Calreticulin; 5 uM,75.2
same,Mean Fluorescence Intensity (MFI) CD47,CD47; 0.008 uM,8706
same,Mean Fluorescence Intensity (MFI) CD47,CD47; 0.04 uM,8881
same,Mean Fluorescence Intensity (MFI) CD47,CD47; 0.2 uM,8730
same,Mean Fluorescence Intensity (MFI) CD47,CD47; 1 uM,8985
same,Mean Fluorescence Intensity (MFI) CD47,CD47; 5 uM,8443
CC1(C)CCC(CN2CCN(c3ccc(C(=O)NS(=O)(=O)c4ccc(NCC5CCOCC5)c([N+](=O)[O-])c4)c(Oc4cnc5[nH]ccc5c4)c3)CC2)=C(c2ccc(Cl)cc2)C1 [Venetoclax],Macrophage viability (CellTiter-Glo Luminescent Cell Viability Assay),macrophages; Cpd 0.002 uM,5968 and 6024 and 5856
same,Macrophage viability (CellTiter-Glo Luminescent Cell Viability Assay),macrophages; Cpd 0.008 uM,6148 and 6172 and 5912
same,Macrophage viability (CellTiter-Glo Luminescent Cell Viability Assay),macrophages; Cpd 0.04 uM,6288 and 6072 and 6264
same,Macrophage viability (CellTiter-Glo Luminescent Cell Viability Assay),macrophages; Cpd 0.2 uM,7260 and 6072 and 5756
same,Macrophage viability (CellTiter-Glo Luminescent Cell Viability Assay),macrophages; Cpd 1 uM,6052 and 6020 and 6088
same,Macrophage viability (CellTiter-Glo Luminescent Cell Viability Assay),macrophages; Cpd 5 uM,5760 and 5660 and 6120
same,Macrophage viability (CellTiter-Glo Luminescent Cell Viability Assay),macrophages; Cpd 25 uM,4696 and 4596 and 4776
same,Macrophage viability (CellTiter-Glo Luminescent Cell Viability Assay),macrophages; Cpd 50 uM,1240 and 1132 and 1108
same,toxicity to macrophages,macrophages; dose as high as 50 μM,showed toxicity
same,toxicity to macrophages,macrophages; dose lower than 10 μM,little toxic
same,macrophage phagocytosis (untreated = 1.00),"Toledo Cells; Cpd 0.0016 uM, T4J = 0, R = 0",1.00
same,macrophage phagocytosis (untreated = 1.00),Toledo Cells; [1],1.45
same,macrophage phagocytosis (untreated = 1.00),Toledo Cells; [2],2.62
same,macrophage phagocytosis (untreated = 1.00),Toledo Cells; [3],3.23
same,macrophage phagocytosis (untreated = 1.00),"Toledo Cells; Cpd 0.008 uM, T4J = 0, R = 0",1.10
same,macrophage phagocytosis (untreated = 1.00),Toledo Cells; [4],1.54
same,macrophage phagocytosis (untreated = 1.00),Toledo Cells; [5],2.59
same,macrophage phagocytosis (untreated = 1.00),Toledo Cells; [6],3.30
same,macrophage phagocytosis (untreated = 1.00),"Toledo Cells; Cpd 0.04 uM, T4J = 0, R = 0",1.17
same,macrophage phagocytosis (untreated = 1.00),Toledo Cells; [7],1.82
same,macrophage phagocytosis (untreated = 1.00),Toledo Cells; [8],2.64
same,macrophage phagocytosis (untreated = 1.00),Toledo Cells; [9],3.37
same,macrophage phagocytosis (untreated = 1.00),"Toledo Cells; Cpd 0.2 uM, T4J = 0, R = 0",1.41
same,macrophage phagocytosis (untreated = 1.00),Toledo Cells; [10],1.93
same,macrophage phagocytosis (untreated = 1.00),Toledo Cells; [11],2.81
same,macrophage phagocytosis (untreated = 1.00),Toledo Cells; [12],3.64
same,macrophage phagocytosis (untreated = 1.00),"Toledo Cells; Cpd 1 uM, T4J = 0, R = 0",1.56
same,macrophage phagocytosis (untreated = 1.00),Toledo Cells; [13],2.03
same,macrophage phagocytosis (untreated = 1.00),Toledo Cells; [14],2.91
same,macrophage phagocytosis (untreated = 1.00),Toledo Cells; [15],3.65
same,Mean Fluorescence Intensity (MFI) Calreticulin,Calreticulin; 0.008 uM,117
same,Mean Fluorescence Intensity (MFI) Calreticulin,Calreticulin; 0.04 uM,258
same,Mean Fluorescence Intensity (MFI) Calreticulin,Calreticulin; 0.2 uM,471
same,Mean Fluorescence Intensity (MFI) Calreticulin,Calreticulin; 1 uM,1123
same,Mean Fluorescence Intensity (MFI) Calreticulin,Calreticulin; 5 uM,2533
same,increase of the expression level of calreticulin,Calreticulin; dose of 5 μM,~120 folds
same,Mean Fluorescence Intensity (MFI) CD47,CD47; 0.008 uM,7873
same,Mean Fluorescence Intensity (MFI) CD47,CD47; 0.04 uM,6201
same,Mean Fluorescence Intensity (MFI) CD47,CD47; 0.2 uM,5206
same,Mean Fluorescence Intensity (MFI) CD47,CD47; 1 uM,4232
same,Mean Fluorescence Intensity (MFI) CD47,CD47; 5 uM,3540
same,inhibition of CD47 expression,CD47; dose of 5 μM,~50%
